Patent publication US20050250715A1, “Remedy” (priority 2002, published 2005)

System: NGF
Experiment: Enhancing activity for NGF production in L-M cells (NGF in culture medium by enzyme immunoassay)
Assay type: cell-based, murine
Details: 20 hours; for Amount of NGF Production (%): control = 100%
Procedure: (2) The enhancing activity for NGF production of the compound a was assayed. L-M cells (ATCC CCL-1.2) from murine fibroblasts were suspended in an M199 medium (manufactured by Bio Whittaker) containing 0.5% bactopeptone (manufactured by Gibco) so as to have a concentration of 1.5×10^5 cells/mL. The suspension was put in a 96 well plate in an amount of 0.1 mL each well, and the cells were aseptically cultured. After culturing the cells for 3 days, the medium was removed therefrom, and exchanged with an M199 medium containing 0.5% bovine serum albumin (manufactured by Sigma). The compound a was added thereto, and the cells were cultured for 20 hours. After the termination of the culture, the concentration of NGF in the culture medium was assayed by an enzyme immunoassay method (NGF Emax Immuno Assay System, manufactured by Promega). The experiment was carried out twice, and an average value was taken. […] The amount of NGF production of the control was 0.739 ng/mL. As to the control, the concentration in the culture medium was determined in the same manner except that the compound a was not added. It is the same as that of the following examples.

## CC(=O)OC1C(OC2C(O)COC(OC3C(O)C(C)(C)CC4C5=CCC6C7(C)CCC(OC8OC(C(=O)O)C(O)C(O)C8OC8OC(CO)C(O)C(O)C8OC8OC(CO)C(O)C(O)C8O)C(C)(CO)C7CCC6(C)C5(C)CCC43C)C2O)OCC(O)C1O [Compound a, 3-O-[β-D-glucopyranosyl(1→2)-β-D-galactopyranosyl-(1→2)-β-D-glucuronopyranosyl]-22-O-[2-O-acetyl-β-D-xylopyranosyl(1→3)-α-L-arabinopyranosyl]soyasapogenol A]
  enhancing activity for NGF production (result in words): has an enhancing activity for NGF production
Concentration of Sample 0.5 mM
  Amount of NGF Production (%): 228.3%
Concentration of Sample 1.0 mM
  Amount of NGF Production (%): 231.6%
Concentration of Sample 2 mM
  Amount of NGF Production (%): 212.6%

## CC(=O)OC1C(O)COC(OC2C(O)COC(OC3C(O)C(C)(C)CC4C5=CCC6C7(C)CCC(OC8OC(C(=O)O)C(O)C(O)C8OC8OC(CO)C(O)C(O)C8OC8OC(CO)C(O)C(O)C8O)C(C)(CO)C7CCC6(C)C5(C)CCC43C)C2O)C1O [Compound b, 3-O-[β-D-glucopyranosyl(1→2)-β-D-galactopyranosyl-(1→2)-β-D-glucuronopyranosyl]-22-O-[3-O-acetyl-β-D-xylopyranosyl(1→3)-α-L-arabinopyranosyl]soyasapogenol A]
  enhancing activity for NGF production (result in words): has an enhancing activity for NGF production
Concentration of Sample 0.5 mM
  Amount of NGF Production (%): 220.9%
Concentration of Sample 1.0 mM
  Amount of NGF Production (%): 251.2%
Concentration of Sample 2 mM
  Amount of NGF Production (%): 272.3%

## CC(=O)OC1COC(OC2C(O)COC(OC3C(O)C(C)(C)CC4C5=CCC6C7(C)CCC(OC8OC(C(=O)O)C(O)C(O)C8OC8OC(CO)C(O)C(O)C8OC8OC(CO)C(O)C(O)C8O)C(C)(CO)C7CCC6(C)C5(C)CCC43C)C2O)C(O)C1O [Compound c, 3-O-[β-D-glucopyranosyl(1→2)-β-D-galactopyranosyl-(1→2)-β-D-glucuronopyranosyl]-22-O-[4-O-acetyl-β-D-xylopyranosyl(1→3)-α-L-arabinopyranosyl]soyasapogenol A]
  enhancing activity for NGF production (result in words): has an enhancing activity for NGF production
Concentration of Sample 0.5 mM
  Amount of NGF Production (%): 255.1%
Concentration of Sample 1.0 mM
  Amount of NGF Production (%): 289.2%
Concentration of Sample 2 mM
  Amount of NGF Production (%): 323.7%

## CC(=O)OC1C(O)COC(OC2C(O)COC(OC3C(O)C(C)(C)CC4C5=CCC6C7(C)CCC(OC8OC(C(=O)O)C(O)C(O)C8OC8OC(CO)C(O)C(O)C8OC8OC(CO)C(O)C(O)C8O)C(C)(CO)C7CCC6(C)C5(C)CCC43C)C2O)C1OC(C)=O [Compound d, 3-O-[β-D-glucopyranosyl(1→2)-β-D-galactopyranosyl-(1→2)-β-D-glucuronopyranosyl]-22-O-[2,3-di-O-acetyl-β-D-xylopyranosyl(1→3)-α-L-arabinopyranosyl]soyasapogenol A]
  enhancing activity for NGF production (result in words): has an enhancing activity for NGF production
Concentration of Sample 0.5 mM
  Amount of NGF Production (%): 255.8%
Concentration of Sample 1.0 mM
  Amount of NGF Production (%): 281.1%
Concentration of Sample 2 mM
  Amount of NGF Production (%): 276.5%

## CC(=O)OC1COC(OC2C(O)COC(OC3C(O)C(C)(C)CC4C5=CCC6C7(C)CCC(OC8OC(C(=O)O)C(O)C(O)C8OC8OC(CO)C(O)C(O)C8OC8OC(CO)C(O)C(O)C8O)C(C)(CO)C7CCC6(C)C5(C)CCC43C)C2O)C(OC(C)=O)C1O [Compound e, 3-O-[β-D-glucopyranosyl(1→2)-β-D-galactopyranosyl-(1→2)-β-D-glucuronopyranosyl]-22-O-[2,4-di-O-acetyl-β-D-xylopyranosyl(1→3)-α-L-arabinopyranosyl]soyasapogenol A]
  enhancing activity for NGF production (result in words): has an enhancing activity for NGF production
Concentration of Sample 0.5 mM
  Amount of NGF Production (%): 214.0%
Concentration of Sample 1.0 mM
  Amount of NGF Production (%): 233.7%
Concentration of Sample 2 mM
  Amount of NGF Production (%): 230.1%

## CC(=O)OC1COC(OC2C(O)COC(OC3C(O)C(C)(C)CC4C5=CCC6C7(C)CCC(OC8OC(C(=O)O)C(O)C(O)C8OC8OC(CO)C(O)C(O)C8OC8OC(CO)C(O)C(O)C8O)C(C)(CO)C7CCC6(C)C5(C)CCC43C)C2O)C(O)C1OC(C)=O [Compound f, 3-O-[β-D-glucopyranosyl(1→2)-β-D-galactopyranosyl-(1→2)-β-D-glucuronopyranosyl]-22-O-[3,4-di-O-acetyl-β-D-xylopyranosyl(1→3)-α-L-arabinopyranosyl]soyasapogenol A]
  enhancing activity for NGF production (result in words): has an enhancing activity for NGF production
Concentration of Sample 0.5 mM
  Amount of NGF Production (%): 204.5%
Concentration of Sample 1.0 mM
  Amount of NGF Production (%): 208.8%
Concentration of Sample 2 mM
  Amount of NGF Production (%): 218.5%

## CC(=O)OCC1OC(OC2C(O)COC(OC3C(O)C(C)(C)CC4C5=CCC6C7(C)CCC(OC8OC(C(=O)O)C(O)C(O)C8OC8OC(CO)C(O)C(O)C8OC8OC(CO)C(O)C(O)C8O)C(C)(CO)C7CCC6(C)C5(C)CCC43C)C2O)C(O)C(OC(C)=O)C1OC(C)=O [Compound g, 3-O-[β-D-glucopyranosyl(1→2)-β-D-galactopyranosyl-(1→2)-β-D-glucuronopyranosyl]-22-O-[3,4,6-tri-O-acetyl-β-D-glucopyranosyl(1→3)-α-L-arabinopyranosyl]soyasapogenol A]
  enhancing activity for NGF production (result in words): has an enhancing activity for NGF production
Concentration of Sample 0.5 mM
  Amount of NGF Production (%): 295.4%
Concentration of Sample 1.0 mM
  Amount of NGF Production (%): 277.2%
Concentration of Sample 2 mM
  Amount of NGF Production (%): 247.6%

## CC(=O)OCC1OC(OC2C(O)COC(OC3C(O)C(C)(C)CC4C5=CCC6C7(C)CCC(OC8OC(C(=O)O)C(O)C(O)C8OC8OC(CO)C(O)C(O)C8OC8OC(CO)C(O)C(O)C8O)C(C)(CO)C7CCC6(C)C5(C)CCC43C)C2O)C(OC(C)=O)C(OC(C)=O)C1OC(C)=O [Compound h, 3-O-[β-D-glucopyranosyl(1→2)-β-D-galactopyranosyl-(1→2)-β-D-glucuronopyranosyl]-22-O-[2,3,4,6-tetra-O-acetyl-β-D-glucopyranosyl(1→3)-α-L-arabinopyranosyl]soyasapogenol A]
  enhancing activity for NGF production (result in words): has enhancing activity for NGF production
Concentration of Sample 0.5 mM
  Amount of NGF Production (%): 273.3%
Concentration of Sample 1.0 mM
  Amount of NGF Production (%): 301.7%
Concentration of Sample 2 mM
  Amount of NGF Production (%): 307.2%

## CC1(C)C[C@@H](O)[C@]2(C)CC[C@]3(C)C(=CC[C@@H]4[C@@]5(C)CC[C@H](O[C@@H]6O[C@H](C(=O)O)[C@@H](O)[C@H](O)[C@H]6O[C@@H]6O[C@H](CO)[C@H](O)[C@H](O)[C@H]6O[C@@H]6O[C@H](CO)[C@@H](O)[C@H](O)[C@H]6O)[C@@](C)(CO)[C@@H]5CC[C@]43C)[C@@H]2C1 [Compound i, 3-O-[β-D-glucopyranosyl(1→2)-β-D-galactopyranosyl-(1→2)-β-D-glucuronopyranosyl]-soyasapogenol B]
  enhancing activity for NGF production (result in words): has enhancing activity for NGF production
Concentration of Sample 1.0 mM
  Amount of NGF Production (%): 116.8%
Concentration of Sample 2 mM
  Amount of NGF Production (%): 169.4%

## C[C@@H]1O[C@@H](O[C@H]2[C@H](O[C@H]3[C@H](O[C@H]4CC[C@@]5(C)[C@@H](CC[C@]6(C)[C@@H]5CC=C5[C@@H]7CC(C)(C)C[C@@H](O)[C@]7(C)CC[C@]56C)[C@@]4(C)CO)O[C@H](C(=O)O)[C@@H](O)[C@@H]3O)O[C@H](CO)[C@H](O)[C@@H]2O)[C@H](O)[C@H](O)[C@H]1O [Compound j, 3-O-[α-L-rhamnopyranosyl(1→2)-β-D-galactopyranosyl-(1→2)-β-D-glucuronopyranosyl]-soyasapogenol B]
  enhancing activity for NGF production (result in words): has enhancing activity for NGF production
Concentration of Sample 0.5 mM
  Amount of NGF Production (%): 138.2%
Concentration of Sample 1.0 mM
  Amount of NGF Production (%): 176.4%
Concentration of Sample 2 mM
  Amount of NGF Production (%): 212.5%
